From US20150329918A1, “JAGGED1 AS A MARKER AND THERAPEUTIC TARGET FOR BREAST CANCER BONE METASTASIS” (The Trustees of Princeton University, priority 2011, published 2015)

Experiments:
[1] = tested on: JAG1 OE tumor cells bone metastasis; experiment: Bone metastasis xenograft, JAG1 OE tumor cells, MRK-003 treatment; type: in vivo, mouse
Procedure: For bone metastsis studies, 10^5 tumor cells were injected into the left cardiac ventricle of anesthetized female athymic Ncr-nu/nu or BALB/c mice. Development of metastases was monitored by BLI. Bioluminescence images were acquired with a Xenogen IVIS 200 Imaging System. Analysis was performed with Living Image software by measuring photon flux in the hindlimbs of mice. Data were normalized to the signal on day 7. Bone metastasis-free survival curves represent the time point at which each mouse developed bone metastasis by threshold BLI signals in the hindlimbs. […]
Osteolysis was assessed by X-ray radiography. […] Osteolytic lesions were identified on radiographs as demarcated radiolucent lesions in the bone and quantified using the ImageJ software (National Institutes of Health).
Hindlimb bones were excised from mice at the end point of each experiment, immediately after the last BLI time point. […] For quantitative analysis of lesion area, a 5× objective was used to focus on the tumor region of interest and images were acquired using the AxioCamICc3 camera set to an exposure of 100 ms. Lesions that were larger than the field of view were quantified by acquiring multiple images to encompass the entire lesion. The “spline” function of the AxioVision software was used to outline the region of interest and subsequently quantify the lesion area. […]

[2] = tested on: MDA231 sublines (SCP28 tumor cells); experiment: Proliferation of tumor cells cultured alone; type: cell-based, human
SCP2 bone metastasis = experiment: Bone metastasis xenograft, SCP2 cells injected intracardially, MRK-003 treatment; type: in vivo, mouse
Procedure: For bone metastsis studies, 10^5 tumor cells were injected into the left cardiac ventricle of anesthetized female athymic Ncr-nu/nu or BALB/c mice. Development of metastases was monitored by BLI. Bioluminescence images were acquired with a Xenogen IVIS 200 Imaging System. Analysis was performed with Living Image software by measuring photon flux in the hindlimbs of mice. Data were normalized to the signal on day 7. Bone metastasis-free survival curves represent the time point at which each mouse developed bone metastasis by threshold BLI signals in the hindlimbs. For the orthotopic xenograft model, mammary fat pad injections and primary tumor size measurements were performed following the procedure described previously (Minn et al., 2005, which is incorporated herein by reference as if fully set forth).
Osteolysis was assessed by X-ray radiography. Anesthetized mice were placed on single wrapped films (X-OMAT AR, Eastman Kodak) and exposed to X-ray radiography at 35 kV for 15 s using a MX-20 Faxitron instrument. Films were developed using a Konica SRX-101A processor. Osteolytic lesions were identified on radiographs as demarcated radiolucent lesions in the bone and quantified using the ImageJ software (National Institutes of Health).
Hindlimb bones were excised from mice at the end point of each experiment, immediately after the last BLI time point. Following this, the tumor-bearing hind limb bones were fixed in 10% neutral-buffered formalin, decalcified in 10% EDTA for 2 weeks, and embedded in paraffin for hematoxylin and eosin (H&E), tartrate-resistant acid phosphatase (TRAP) (Kos et al., 2003, which is incorporated herein by reference as if fully set forth), or immunohistochemical staining. Histomorphometric analysis was performed on H&E stained bone metastasis samples using the Zeiss Axiovert 200 microscope and the AxioVision software version 4.6.3 SP1. For quantitative analysis of lesion area, a 5× objective was used to focus on the tumor region of interest and images were acquired using the AxioCamICc3 camera set to an exposure of 100 ms. Lesions that were larger than the field of view were quantified by acquiring multiple images to encompass the entire lesion. The “spline” function of the AxioVision software was used to outline the region of interest and subsequently quantify the lesion area. Osteoclast number was assessed as multinucleated TRAP^+ cells along the tumor-bone interface and reported as number/mm of interface (Yin et al., 2003, which is incorporated herein by reference as if fully set forth). Immunohistochemical analysis was performed with heat-induced antigen retrieval. Primary antibodies used were anti-JAGGED1 (Santa Cruz, sc-6011) and anti-Ki67 (Dako, Denmark). Biotinylated secondary antibody was used with Vectastain ABC Kit (Vector Laboratories) and DAB detection kit (Zymed) to reveal the positively stained cells with nuclei counterstained with hematoxylin.
MRK-003 is a potent and specific gamma-secretase inhibitor whose biochemical, cellular and pharmacological properties have been extensively studied and reported. MRK-003 is a cyclic sulfamide with sub-nanomolar potency inhibiting gamma-secretase-mediated cleavage of Notch to its active form (NICD) (Lewis et al., 2007, which is incorporated herein by reference as if fully set forth). […] For xenograft experiments, mice were administered the vehicle (0.5% methylcellulose) or MRK-003 by oral gavage twice a week at a 100 mg/kg dosage. The dosing schedule was 2-days on, 5-days off. […]

Notch = conditions: cited from earlier work
MC3T3-E1 osteoblasts = experiment: Microarray gene expression profiling of FACS-separated MC3T3-E1 osteoblasts; type: cell-based, mouse; conditions: FIG. 11B
Description: For microarray analysis the quality of the FACS-separated MC3T3-E1 RNA samples was monitored using the 2100 bioanalyzer (Agilent) before gene expression profiling with the Agilent mouse […] microarrays. To find genes regulated by JAGGED1 and MRK-003 in osteoblasts, expression data of MC3T3-E1 under the indicated coculture and treatment conditions were generated and normalized by the array median, and probes were filtered by the expression levels. Probes with >2-fold changes in MC3T3-E1 cells cocultured with JAG1 OE tumor cells relative to vector-control tumor cells were identified as the regulated genes.

IL-6 = experiment: Murine IL-6 ELISA and qRT-PCR in osteoblast cocultures; type: cell-based, mouse; conditions: JAG1 OE coculture with MC3T3-E1; FIGS. 13B, 13C, 13E
Procedure: Quantitative levels of murine IL-6 in the conditioned medium of cultured and cocultured cells were determined in triplicate by ELISA according to the manufacturer's protocol (Quantikine immunoassay kit, R&D systems).
RNA from in vitro cultured cells or flow cytometry-separated cells was collected in RLT lysis buffer and extracted with RNeasy mini kit (Qiagen). RNA extraction from in vivo tissue samples was performed using Trizol (Invitrogen) according to the manufacturer's protocol. cDNA synthesis of RNA was performed using Superscript III First-Strand (Invitrogen). Quantitative RT-PCR was performed using Power Syber Green PCR Master Mix (Applied Biosystems) with the ABI Prism 7900HT thermocycler (Applied Biosystems) according to the manufacturer's protocol. A standard curve for each gene was generated by serial dilutions of a standard. Values were then normalized by the amount of GAPDH or β-actin in each sample. For in vivo samples, species-specific primers were employed for gene expression analysis in the tumor compartment (human) versus stroma compartment (mouse).

O=S1(=O)N[C@@]2(CN1CC(F)(F)F)[C@@H]1CC[C@H]2Cc2ccc(/C=C/CN3CCC(C(F)(F)F)CC3)cc2C1 [MRK-003]
osteolysis ([1]; JAG1 OE, FIG. 17D): reduced | reduction of bone metastasis in the JAG1 OE group ([1]; tumor signal decreased to levels of control group, FIGS. 17B-17C): more than 6 fold | proliferative ability of tumor cells cultured alone ([2]; JAG1 OE SCP28 without osteoblasts, FIGS. 9B-9C): did not affect | proliferation assays of MDA231 sublines, control vs treated ([2]; relatively low concentrations sufficient to inhibit Notch in bone-specific cells): no difference | reduction in bone metastasis burden by BLI (SCP2 bone metastasis; 100 mg/kg oral gavage twice a week, FIG. 16A): 5 fold | delay in the onset of bone metastasis (SCP2 bone metastasis; FIG. 16B): ~10 days | number of bone lesions (SCP2 bone metastasis; FIG. 16C): reduced | reduction in X-ray lesion area (SCP2 bone metastasis; FIG. 16D): 2 fold | decrease in the number of TRAP+ osteoclasts (SCP2 bone metastasis; bone-tumor interface, FIG. 16E): 3 fold | efficacy with intermittent exposure in mice (Notch; Tammam et al., 2009): robust efficacy | intestinal effect resulting from Notch inhibition (Notch; recovery during dosing holiday): transient intestinal metaplasia (goblet cell induction) | 123 genes activated at least 3-fold in MC3T3-E1 by JAG1 OE coculture (MC3T3-E1 osteoblasts): concomitantly downregulated | IL-6 transcription and secretion from osteoblasts (IL-6): dependent on the Notch pathway
